#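 How tested: cells in 96-well plates exposed to compound for 48 hours at five concentrations. The concentration for 50% growth inhibition is given as GI50. At the TGI there is no net growth.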
# Experiments:
# Assay in all cases: DTP human tumour cell line panel, 48 h
# [1] = tested on: CCRF-CEM leukemia
# [2] = tested on: DU-145 prostate
# [3] = tested on: HCT-15 colon
# [4] = tested on: HT29 colon
# [5] = tested on: IGROV1 ovarian
# [6] = tested on: LOX IMVI melanoma
# [7] = tested on: OVCAR-8 ovarian
# [8] = tested on: SNB-19 CNS
# [9] = tested on: SW-620 colon
# [10] = tested on: UACC-62 melanoma
SMILES,GI50 [1],TGI [1],GI50 [2],TGI [2],GI50 [3],TGI [3],GI50 [4],TGI [4],GI50 [5],TGI [5],GI50 [6],TGI [6],GI50 [7],TGI [7],GI50 [8],TGI [8],GI50 [9],TGI [9],GI50 [10],TGI [10]
CCN(CC)CCOc1ccc(/C(=C(\C)Cc2ccc(OC)cc2)c2ccc(O)cc2)cc1,2.19 µM,5.1 µM,2.14 µM,5 µM,1.49 µM,3 µM,1.43 µM,3.67 µM,2.98 µM,10.3 µM,1.74 µM,3.17 µM,2.12 µM,5.14 µM,2.08 µM,4.77 µM,1.7 µM,3.37 µM,1.81 µM,3.32 µM
CC(=O)NC(CCc1ccc(Cl)c(Cl)c1)c1cccc(O)c(=O)c1 (centres undefined),0.398 µM,16.3 µM,1.18 µM,> 49.2 µM,0.131 µM,19.6 µM,0.784 µM,22 µM,0.539 µM,3.33 µM,0.559 µM,7.5 µM,0.346 µM,13.1 µM,0.919 µM,18.8 µM,0.531 µM,23.7 µM,0.619 µM,1.98 µM
CN1CCC(=C(c2ccc(Cl)cc2)c2ccccn2)CC1,4.37 µM,> 100 µM,> 100 µM,> 100 µM,> 100 µM,> 100 µM,78.8 µM,> 100 µM,78.7 µM,> 100 µM,56.7 µM,> 100 µM,> 100 µM,> 100 µM,> 100 µM,> 100 µM,> 100 µM,> 100 µM,33.3 µM,> 100 µM
Oc1ccc(/C=N/NC(=S)Nc2ccccc2)nc1,0.938 µM,> 100 µM,1.1 µM,> 100 µM,0.407 µM,> 100 µM,5.83 µM,> 100 µM,3.68 µM,> 100 µM,0.464 µM,16.6 µM,0.586 µM,> 100 µM,1.93 µM,> 100 µM,2.07 µM,> 100 µM,1.55 µM,4.95 µM
COc1ccc(-c2cc(-c3ccc(Cl)cc3)nc(SCCCC(=O)NO)n2)cc1OC,0.488 µM,33.4 µM,0.811 µM,4.73 µM,0.337 µM,1.56 µM,1.46 µM,> 26 µM,1.04 µM,2.69 µM,0.345 µM,1.44 µM,0.486 µM,> 21 µM,1.57 µM,4.43 µM,0.578 µM,2.76 µM,1.01 µM,2.86 µM
CCNCCS(=O)(=O)NC[C@@]1(c2ccccc2)SC(NC(=O)C(C)(C)C)=NN1C(=O)C(C)(C)C,< 0.01 µM,> 100 µM,< 0.0159 µM,> 100 µM,0.399 µM,> 100 µM,< 0.01 µM,> 100 µM,2.9 µM,> 100 µM,< 0.0285 µM,> 47.3 µM,< 0.0117 µM,> 100 µM,–,> 100 µM,< 0.01 µM,> 100 µM,< 0.01 µM,> 100 µM
O=C(NNC1=NS(=O)(=O)c2ccccc2N1c1ccccc1)c1cnccn1,> 100 µM,> 100 µM,> 100 µM,> 100 µM,52.2 µM,> 100 µM,> 100 µM,> 100 µM,> 100 µM,> 100 µM,> 100 µM,> 100 µM,> 100 µM,> 100 µM,> 100 µM,> 100 µM,> 100 µM,> 100 µM,> 100 µM,> 100 µM
Nc1nc2c(ncn2C2OC(CO)C(O)C2O)c(=O)o1 (centres undefined),–,> 100 µM,–,> 100 µM,–,> 100 µM,–,> 100 µM,–,> 100 µM,–,> 100 µM,–,> 100 µM,–,> 100 µM,–,> 93.6 µM,–,> 100 µM
C=C1CC[C@@](C)(c2cc(Br)c(C)cc2OC(C)=O)[C@H]1C,8.88 µM,26.6 µM,15.9 µM,31.9 µM,15.1 µM,31.3 µM,14.9 µM,28.1 µM,13.2 µM,29.4 µM,14.8 µM,31 µM,13.2 µM,27.8 µM,15.5 µM,31.2 µM,11.8 µM,24.6 µM,7.06 µM,20.1 µM

# — PubChem BioAssay (NCI)
